Test results: patent US20050222102A1, “Treatment of rhinitis with anticholinergics alone or in combination with antihistamines, phosphodiesterase 4 inhibitors, or corticosteroids” (Sofotec GmbH & Co. KG, priority 2004, published 2005)
Where a name gives a salt, the structure may show the parent alone.

Assays:
[1] = system: experimental allergic rhinitis models; assay: experimental allergic rhinitis models; assay type: in vivo; conditions: for side-effects: compared with expectation; for reduction in the watery secretion: compared with what is typical for anticholinergic agents
water solubility = assay type: physicochemical
[2] = system: animal models of asthma and rhinitis; assay: animal models of asthma and rhinitis; conditions: in vivo
[3] = in vivo, po

C[N+]1(C)CC[C@@H](OC(=O)[C@](O)(c2ccccc2)C2CCCC2)C1.[Br-] (single isomer, unassigned) [R,R-isomer, R,R-glycopyrrolate]
side-effects [1]: lower side-effects than expected | reduction in the watery secretion [1]: longer-lasting reduction in the watery secretion

CN1CCCC(n2nc(Cc3ccc(Cl)cc3)c3ccccc3c2=O)CC1 (stereo not shown) [azelastine hydrochloride]
water solubility (water solubility): sufficient

C[N+]1(C)CCC(OC(=O)C(O)(c2ccccc2)C2CCCC2)C1 (racemic) [glycopyrrolate]
side-effects [1]: lower side-effects than expected | reduction in the watery secretion [1]: longer-lasting reduction in the watery secretion

O=C(Nc1c(Cl)cncc1Cl)C(=O)c1cn(Cc2ccc(F)cc2)c2ccc(O)cc12 [AWD 12-281]
effectiveness in animal models of asthma and rhinitis [2]: highly effective | emesis and signs of nausea [3]: devoid of emesis and signs of nausea
